Measurements from ChEMBL document CHEMBL1147183, “Design, synthesis, and evaluation of non-steroidal farnesoid X receptor (FXR) antagonist” (Bioorg Med Chem, 2007).
The source made the active and inactive calls. The calls are words filed in the database; no cut-off is given here.

Experiments:
Bile acid receptor [1] = molecular target: T1, Bile acid receptor (Homo sapiens, UniProt Q96RI1); test: Agonistic activity at FXR in HEK293 cells by GAL4 transactivation activity; format: functional, cell-based
T1 sequence (Q96RI1 whole entry): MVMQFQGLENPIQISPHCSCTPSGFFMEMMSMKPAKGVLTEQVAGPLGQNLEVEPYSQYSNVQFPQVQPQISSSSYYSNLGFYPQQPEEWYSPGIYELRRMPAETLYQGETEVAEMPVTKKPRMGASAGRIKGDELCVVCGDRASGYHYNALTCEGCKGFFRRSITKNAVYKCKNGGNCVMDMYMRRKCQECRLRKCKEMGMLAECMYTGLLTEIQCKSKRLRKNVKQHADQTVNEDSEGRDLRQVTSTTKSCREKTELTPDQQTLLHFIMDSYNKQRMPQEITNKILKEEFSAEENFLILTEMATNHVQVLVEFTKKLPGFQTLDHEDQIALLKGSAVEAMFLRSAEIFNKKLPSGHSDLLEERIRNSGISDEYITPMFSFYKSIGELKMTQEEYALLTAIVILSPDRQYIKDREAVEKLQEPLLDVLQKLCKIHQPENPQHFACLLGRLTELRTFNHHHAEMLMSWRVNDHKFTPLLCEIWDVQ

[2] = molecular target: T2, Bile acid receptor (Homo sapiens) (UniProt Q96RI1); test: Agonistic activity at FXR in HEK293 cells at 100 uM by GAL4 transactivation activity; format: functional, cell-based
T2 sequence (whole entry): T1 sequence (Q96RI1 whole entry)

Bile acid receptor [3] = molecular target: T1, Bile acid receptor; test: Inhibition of FXR in HEK293 cells in presence of CDCA by GAL4 transactivation activity; format: cell-based
[4] = molecular target: T3, Progesterone receptor (Homo sapiens) (UniProt P06401); test: Activity against PR by transactivation activity at 30 uM
T3 sequence (whole entry): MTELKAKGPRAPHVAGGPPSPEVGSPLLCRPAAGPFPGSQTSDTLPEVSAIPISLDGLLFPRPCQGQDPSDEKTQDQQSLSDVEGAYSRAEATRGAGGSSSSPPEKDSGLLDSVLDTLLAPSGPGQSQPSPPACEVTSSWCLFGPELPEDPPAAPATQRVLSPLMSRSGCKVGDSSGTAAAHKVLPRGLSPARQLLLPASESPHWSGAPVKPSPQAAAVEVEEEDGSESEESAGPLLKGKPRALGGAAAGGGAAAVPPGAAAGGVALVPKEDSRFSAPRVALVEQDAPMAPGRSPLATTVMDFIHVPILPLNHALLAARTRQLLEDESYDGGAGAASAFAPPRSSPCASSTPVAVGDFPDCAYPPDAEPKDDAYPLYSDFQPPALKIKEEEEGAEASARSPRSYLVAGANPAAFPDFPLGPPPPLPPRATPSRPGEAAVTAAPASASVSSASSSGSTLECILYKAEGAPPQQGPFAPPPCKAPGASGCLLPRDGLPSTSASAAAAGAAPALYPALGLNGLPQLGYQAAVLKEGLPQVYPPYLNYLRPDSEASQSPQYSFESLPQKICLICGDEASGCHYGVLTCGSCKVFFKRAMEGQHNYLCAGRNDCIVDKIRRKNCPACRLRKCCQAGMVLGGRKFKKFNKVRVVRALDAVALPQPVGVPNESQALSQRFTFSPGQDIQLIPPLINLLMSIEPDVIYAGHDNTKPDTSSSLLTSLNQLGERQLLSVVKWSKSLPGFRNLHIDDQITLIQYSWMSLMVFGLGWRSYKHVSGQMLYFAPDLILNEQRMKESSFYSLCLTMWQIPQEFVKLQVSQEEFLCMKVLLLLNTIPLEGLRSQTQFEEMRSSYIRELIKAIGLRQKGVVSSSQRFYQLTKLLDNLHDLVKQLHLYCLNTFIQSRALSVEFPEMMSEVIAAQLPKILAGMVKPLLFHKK

[5] = molecular target: T2, Bile acid receptor (Homo sapiens); test: Activity at FXR assessed by ligand-induced co-repressor recruitment by two-hybrid assay system

Q: Which EC50 (Bile acid receptor [1]) does the source give for `CCCNC(=O)c1cccc(/C=C/c2ccc(OCc3c(-c4c(Cl)cccc4Cl)noc3C(C)C)cc2Cl)c1` here?
A: 9 µM

Q: How did the Activity [2] turn out when `O=C(O)c1cccc(/C=C/c2ccc(OCc3c(-c4c(Cl)cccc4Cl)noc3-c3ccc4ccccc4c3)cc2Cl)c1` was run?
A: inactive

Q: And the IC50 (Bile acid receptor [3])?
A: 22.2 µM

Q: Which EC50 (Bile acid receptor [1]) does the source give for `CC(C)c1onc(-c2c(Cl)cccc2Cl)c1COc1ccc(/C=C/c2cccc(C(=O)N(Cc3ccccc3)Cc3ccccc3)c2)c(Cl)c1` here?
A: 35.1 µM

Q: With `CC(C)(C)c1onc(-c2c(Cl)cccc2Cl)c1COc1ccc(C(=O)Nc2cccc(C(=O)O)c2)c(Cl)c1` as the molecule, how does the EC50 (Bile acid receptor [1]) read?
A: 1.3 µM

Q: With `CCCN(C(=O)c1ccc(OCc2c(-c3c(Cl)cccc3Cl)noc2C(C)C)cc1Cl)c1cccc(C(=O)O)c1` as the molecule, how does the EC50 (Bile acid receptor [1]) read?
A: 2.1 µM

Q: `O=C(O)c1cccc(NC(=O)c2ccc(OCc3c(-c4c(Cl)cccc4Cl)noc3-c3ccc(-c4ccccc4)cc3)cc2Cl)c1` was tested. Which Activity [2] did it give?
A: inactive

Q: And the IC50 (Bile acid receptor [3])?
A: 3.7 µM

Q: And the Activity [4]?
A: Active

Q: With `CC(C)c1onc(-c2c(Cl)cccc2Cl)c1COc1ccc(C(=O)Nc2cccc(C(=O)O)c2)c(Cl)c1` as the molecule, how does the EC50 (Bile acid receptor [1]) read?
A: 3 µM

Q: `CC(C)(C)c1onc(-c2c(Cl)cccc2Cl)c1COc1ccc(/C=C/c2cccc(C(=O)O)c2)c(Cl)c1` was tested. Which EC50 (Bile acid receptor [1]) did it give?
A: 1.3 µM

Q: Which Activity [2] does the source give for `CC(C)c1onc(-c2ccc3ccccc3c2)c1COc1ccc(/C=C/c2cccc(C(=O)O)c2)c(Cl)c1` here?
A: inactive

Q: For `CC(C)c1onc(-c2c(Cl)cccc2Cl)c1COc1ccc(C(=O)N(C)c2cccc(C(=O)O)c2)c(Cl)c1`, which EC50 (Bile acid receptor [1]) is on record?
A: 3.1 µM

Q: Which results are given for `O=C(O)c1cccc(/C=C/c2ccc(OCc3c(-c4c(Cl)cccc4Cl)noc3-c3ccc(-c4ccccc4)cc3)cc2Cl)c1`?
A: Activity [2]: inactive; IC50 (Bile acid receptor [3]): 33.9 µM

Q: With `O=C(O)c1cccc(NC(=O)c2ccc(OCc3c(-c4c(Cl)cccc4Cl)noc3-c3ccc4ccccc4c3)cc2Cl)c1` as the molecule, how does the Activity [2] read?
A: inactive

Q: And the IC50 (Bile acid receptor [3])?
A: 4 µM

Q: What about the Activity [4] of the same molecule?
A: inactive

Q: And the Activity [5]?
A: inactive

Q: `O=C(O)c1cccc(/C=C/c2ccc(OCc3c(-c4c(Cl)cccc4Cl)noc3-c3ccccc3)cc2Cl)c1` was tested. Which Activity [2] did it give?
A: inactive

Q: What about the IC50 (Bile acid receptor [3]) of the same molecule?
A: 15.8 µM

Q: With `CC(C)c1onc(-c2c(Cl)cccc2Cl)c1COc1ccc(C(=O)N(CCc2ccccc2)c2cccc(C(=O)O)c2)c(Cl)c1` as the molecule, how does the EC50 (Bile acid receptor [1]) read?
A: 0.84 µM

Q: For `C/C=C1\C(=O)C[C@H]2[C@@H]3CCC4=CC(=O)CC[C@]4(C)[C@H]3CC[C@]12C`, which Activity [2] is on record?
A: inactive

Q: What about the Activity [5] of the same molecule?
A: inactive

Q: For `CC(C)c1onc(-c2c(Cl)cccc2Cl)c1COc1ccc(C(=O)N(Cc2ccccc2)c2cccc(C(=O)O)c2)c(Cl)c1`, which EC50 (Bile acid receptor [1]) is on record?
A: 2.5 µM

Q: For `CC(C)c1onc(-c2ccc(-c3ccccc3)cc2)c1COc1ccc(/C=C/c2cccc(C(=O)O)c2)c(Cl)c1`, which Activity [2] is on record?
A: inactive
